Test results from publication PMC9078933 (2018).

Tested on: ATB1 (DNA, aptamer) ATATCTTTTCCTACTCATCTTTGAATAACTACCGGGCATTACTTTCTGGCCTCCCTGCCTCCTAAATCACCAATTAATTCGCGGCCCCCCG
Experiment: fluorescence recovery, aptamer-QD on graphene oxide
Details: phosphate buffer pH 7.2, 0.5% BSA, room temperature; tested concentration not stated

## C[C@@H]1Cc2c(Cl)cc(C(=O)N[C@@H](Cc3ccccc3)C(=O)O)c(O)c2C(=O)O1
  binding: no
